From patent US20220151236A1, “NOVEL OXADIAZOLE COMPOUNDS FOR CONTROLLING OR PREVENTING PHYTOPATHOGENIC FUNGI” (PI INDUSTRIES LTD., priority 2019, published 2022) come the findings set out here.

The test system of one assay is Alternaria solani. Kind of assay: Alternaria solani (Early Blight of Tomato/Potato): radial mycelial growth on potato dextrose agar. The conditions noted are these: 168 h, potato dextrose agar, 25° C., 60% relative humidity, seven days, read-out: control (radial growth compared to the untreated check). Type of assay: cell-based. Here is the method: Compounds were dissolved in 0.3% dimethyl sulfoxide and then added to potato dextrose agar medium just prior to dispensing it into petri dishes. 5 mL medium with the compound in the desired concentration was dispensed into 60 mm sterile petri-plates. After solidification each plate was seeded with a 5 mm size mycelial disc taken from the periphery of an actively growing virulent culture plate. Plates were incubated in growth chambers at 25° C. temperature and 60% relative humidity for seven days and then the radial growth was measured and compared to that of the untreated control. Compounds 2 85 89 92 94 108 113 114 131 138 142 143

For a further assay, the system named is Phakopsora pachyrhizi. The experiment in a line: Phakopsora pachyrhizi Test on Soybean (preventive activity, greenhouse). The assay is classed as in vivo. The conditions noted are these: preventive spray on young Soybean plants, inoculated one day after treatment, rated 3, 7, 10 and 15 days after application, read-out: Efficacy (% control), disease severity compared to the untreated check. In outline: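 Preventive greenhouse test: young soybean plants sprayed with compound in 2% DMSO/acetone plus emulsified water at stated rates, inoculated one day later with 2×10^5 P. pachyrhizi conidia, held at 22-24° C and 80-90% RH. Disease severity (0-100%) rated 3, 7, 10 and 15 days after application; % control relative to untreated plants.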

A further assay relates to Pyricularia Oryzae. Kind of assay: microbe, parasite or virus in culture. Type of assay: cell-based. The conditions noted are these: 168 h, read-out: control (radial growth compared to the untreated check).

With `COc1ccc(NC(=O)c2cn3ccc(-c4noc(C(F)(F)F)n4)cc3n2)cc1` [Compound 2, N-(4-methoxyphenyl)-7-(5-(trifluoromethyl)-1,2,4-oxadiazol-3-yl)imidazo[1,2-a]pyridine-2-carboxamide], the inhibition of growth at 300 ppm in the assay with Alternaria solani is no less than 70%. Also, in the assay on Phakopsora pachyrhizi, the pest or weed control at 500 ppm is no less than 70%.

`CN(C(=O)c1cn2ccc(-c3noc(C(F)(F)F)n3)cc2n1)c1ccc(Cl)cc1` [Compound 12, N-(4-chlorophenyl)-N-methyl-7-(5-(trifluoromethyl)-1,2,4-oxadiazol-3-yl)imidazo[1,2-a]pyridine-2-carboxamide]: the pest or weed control at 500 ppm in the assay on Phakopsora pachyrhizi was no less than 70%. Also, the inhibition of growth at 300 ppm in the assay on Pyricularia Oryzae was no less than 70%.

As for `O=C(c1cn2ccc(-c3noc(C(F)(F)F)n3)cc2n1)N1CCC1` [Compound 33, azetidin-1-yl(7-(5-(trifluoromethyl)-1,2,4-oxadiazol-3-yl)imidazo[1,2-a]pyridin-2-yl)methanone], in the assay with Phakopsora pachyrhizi, the pest or weed control at 500 ppm was no less than 70%. In the assay on Pyricularia Oryzae, the inhibition of growth at 300 ppm is no less than 70%.

As for `O=C(NCc1cn2cc(-c3noc(C(F)(F)F)n3)ccc2n1)c1cccc(Cl)c1` [Compound 85, 3-chloro-N-((6-(5-(trifluoromethyl)-1,2,4-oxadiazol-3-yl)imidazo[1,2-a]pyridin-2-yl)methyl)benzamide], in the assay on Alternaria solani, the inhibition of growth at 300 ppm was no less than 70%. Also, in the assay on Phakopsora pachyrhizi, the pest or weed control at 500 ppm was no less than 70%.

Regarding `O=C(NCc1cn2cc(-c3noc(C(F)(F)F)n3)ccc2n1)c1ccccn1` [Compound 87, N-((6-(5-(trifluoromethyl)-1,2,4-oxadiazol-3-yl)imidazo[1,2-a]pyridin-2-yl)methyl)picolinamide], the pest or weed control at 500 ppm in the assay with Phakopsora pachyrhizi was no less than 70%. Also, the inhibition of growth at 300 ppm with Pyricularia Oryzae was no less than 70%.

Consider `O=C(NCc1cn2cc(-c3noc(C(F)(F)F)n3)ccc2n1)c1ccc(OC(F)(F)F)cc1` [Compound 89, 4-(trifluoromethoxy)-N-((6-(5-(trifluoromethyl)-1,2,4-oxadiazol-3-yl)imidazo[1,2-a]pyridin-2-yl)methyl)benzamide], for which the inhibition of growth at 300 ppm in the assay on Alternaria solani is no less than 70%. The pest or weed control at 500 ppm in the assay with Phakopsora pachyrhizi was no less than 70%.

Take `O=C(Cc1ccccc1)NCc1cn2cc(-c3noc(C(F)(F)F)n3)ccc2n1` [Compound 94, 2-phenyl-N-((6-(5-(trifluoromethyl)-1,2,4-oxadiazol-3-yl)imidazo[1,2-a]pyridin-2-yl)methyl)acetamide]: in the assay on Alternaria solani, the inhibition of growth at 300 ppm is no less than 70%. Also, in the assay on Phakopsora pachyrhizi, the pest or weed control at 500 ppm is no less than 70%.

In the case of `FC(F)(F)c1nc(-c2ccc3nc(CSCc4ccccc4)cn3c2)no1` [Compound 108, 3-(2-((benzylthio)methyl)imidazo[1,2-a]pyridin-6-yl)-5-(trifluoromethyl)-1,2,4-oxadiazole], the inhibition of growth at 300 ppm in the assay with Alternaria solani was no less than 70%.

In the case of `[O-][S+](Cc1cn2cc(-c3noc(C(F)(F)F)n3)ccc2n1)c1cccc(Cl)c1` (stereo not shown) [Compound 127, 3-(2-(((3-chlorophenyl)sulfinyl)methyl)imidazo[1,2-a]pyridin-6-yl)-5-(trifluoromethyl)-1,2,4-oxadiazole], the pest or weed control at 500 ppm in the assay with Phakopsora pachyrhizi was no less than 70%.

For `CS(=O)(=NC(=O)Cc1cn2cc(-c3noc(C(F)(F)F)n3)ccc2n1)c1ccccc1` (stereo not shown) [Compound 129, N-(methyl(oxo)(phenyl)-λ^6-sulfanylidene)-2-(6-(5-(trifluoromethyl)-1,2,4-oxadiazol-3-yl)imidazo[1,2-a]pyridin-2-yl)acetamide], the pest or weed control at 500 ppm in the assay with Phakopsora pachyrhizi is no less than 70%.

Turning to `CS(=O)(=NC(=O)Cc1cn2cc(-c3noc(C(F)(F)F)n3)ccc2n1)c1ccccc1F` (stereo not shown) [Compound 130, N-((2-fluorophenyl)(methyl)(oxo)-λ^6-sulfaneylidene)-2-(6-(5-(trifluoromethyl)-1,2,4-oxadiazol-3-yl)imidazo[1,2-a]pyridin-2-yl)acetamide], in the assay on Phakopsora pachyrhizi, the pest or weed control at 500 ppm is no less than 70%.

Take `CS(=O)(=NC(=O)Cc1cn2cc(-c3noc(C(F)(F)F)n3)ccc2n1)c1cccc(F)c1` (stereo not shown) [Compound 131, N-((3-fluorophenyl)(methyl)(oxo)-λ^6-sulfaneylidene)-2-(6-(5-(trifluoromethyl)-1,2,4-oxadiazol-3-yl)imidazo[1,2-a]pyridin-2-yl)acetamide]: in the assay on Alternaria solani, the inhibition of growth at 300 ppm is no less than 70%.

Consider `COCCS(=O)(=NC(=O)Cc1cn2cc(-c3noc(C(F)(F)F)n3)ccc2n1)c1ccc(Cl)cc1` (stereo not shown) [Compound 136, N-((4-chlorophenyl)(2-methoxyethyl)(oxo)-λ^6-sulfaneylidene)-2-(6-(5-(trifluoromethyl)-1,2,4-oxadiazol-3-yl)imidazo[1,2-a]pyridin-2-yl)acetamide], for which the inhibition of growth at 300 ppm with Pyricularia Oryzae is no less than 70%.

For `CS(=O)(=NC(=O)Cc1cn2cc(-c3noc(C(F)(F)F)n3)ccc2n1)c1cc(Cl)cc(Cl)c1` (stereo not shown) [Compound 140, N-((3,5-dichlorophenyl)(methyl)(oxo)-λ^6-sulfaneylidene)-2-(6-(5-(trifluoromethyl)-1,2,4-oxadiazol-3-yl)imidazo[1,2-a]pyridin-2-yl)acetamide], the inhibition of growth at 300 ppm with Pyricularia Oryzae was no less than 70%.

Consider `CS(=O)(=NC(=O)Cc1cn2cc(-c3noc(C(F)(F)F)n3)ccc2n1)c1ccc(Cl)c(Cl)c1` (stereo not shown) [Compound 143, N-((3,4-dichlorophenyl)(methyl)(oxo)-λ^6-sulfaneylidene)-2-(6-(5-(trifluoromethyl)-1,2,4-oxadiazol-3-yl)imidazo[1,2-a]pyridin-2-yl)acetamide], for which the inhibition of growth at 300 ppm with Alternaria solani was no less than 70%.

With `Cc1ccccc1S(C)(=O)=NC(=O)Cc1cn2cc(-c3noc(C(F)(F)F)n3)ccc2n1` (stereo not shown) [Compound 148, N-(methyl(oxo)(o-tolyl)-λ^6-sulfaneylidene)-2-(6-(5-(trifluoromethyl)-1,2,4-oxadiazol-3-yl)imidazo[1,2-a]pyridin-2-yl)acetamide], the inhibition of growth at 300 ppm in the assay with Alternaria solani is no less than 70%.

Consider `CS(=O)(=NC(=O)Cc1cn2cc(-c3noc(C(F)(F)F)n3)ccc2n1)c1cccc(Cl)c1` (stereo not shown) [Compound 149, N-((3-chlorophenyl)(methyl)(oxo)-λ^6-sulfaneylidene)-2-(6-(5-(trifluoromethyl)-1,2,4-oxadiazol-3-yl)imidazo[1,2-a]pyridin-2-yl)acetamide], for which the inhibition of growth at 300 ppm in the assay with Alternaria solani is no less than 70%.

On to `CS(=O)(Cc1cn2ccc(-c3noc(C(F)(F)F)n3)cc2n1)=NC(=O)c1ccccc1C(F)(F)F` (stereo not shown) [Compound 161, N-(methyl(oxo)((7-(5-(trifluoromethyl)-1,2,4-oxadiazol-3-yl)imidazo[1,2-a]pyridin-2-yl)methyl)-λ^6-sulfanylidene)-2-(trifluoromethyl)benzamide], for which, in the assay with Pyricularia Oryzae, the inhibition of growth at 300 ppm was no less than 70%.

As for `N=S(=O)(Cc1cn2ccc(-c3noc(C(F)(F)F)n3)cc2n1)c1ccccc1` (stereo not shown) [Compound 164, imino(phenyl)((7-(5-(trifluoromethyl)-1,2,4-oxadiazol-3-yl)imidazo[1,2-a]pyridin-2-yl)methyl)-λ^6-sulfanone], the pest or weed control at 500 ppm in the assay with Phakopsora pachyrhizi is no less than 70%.

For the compound `COc1ccc(S(=N)(=O)Cc2cn3ccc(-c4noc(C(F)(F)F)n4)cc3n2)cc1` (stereo not shown) [Compound 165, imino(4-methoxyphenyl)((7-(5-(trifluoromethyl)-1,2,4-oxadiazol-3-yl)imidazo[1,2-a]pyridin-2-yl)methyl)-λ^6-sulfanone], in the assay on Phakopsora pachyrhizi, the pest or weed control at 500 ppm was no less than 70%.

As to `N=S(=O)(Cc1cn2ccc(-c3noc(C(F)(F)F)n3)cc2n1)c1ccc(Cl)cc1` (stereo not shown) [Compound 166, (4-chlorophenyl)(imino)((7-(5-(trifluoromethyl)-1,2,4-oxadiazol-3-yl)imidazo[1,2-a]pyridin-2-yl)methyl)-λ^6-sulfanone], the pest or weed control at 500 ppm in the assay on Phakopsora pachyrhizi was no less than 70%.
